In the supplement of paper PMC11061612:

How the values were obtained:
Assay in all cases: combination Emax (second highest fraction inhibited in the dose matrix, 72 h); higher = more inhibition; extreme values may be limits of the assay
786-0 (Kidney Carcinoma) = tested on: 786-0 (Kidney Carcinoma)
Outline: (§1)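 Bliss excess equals the observed combination effect minus the expected value EA + EB − EA·EB, where EA and EB are the effects of each agent alone. Combination Emax is the second-highest inhibition within the matrix. Inhibition was scaled from CellTiter-Glo 2.0 luminescence, with 0 set by vehicle wells and 1 by blank wells, after 72 hours of two-drug dosing of cells plated in 1536-well plates.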

[1] = tested on: AN3-CA (Endometrial Carcinoma)
Outline: as §1

[2] = tested on: BALL-1 (B-Lymphoblastic Leukemia)
Outline: as §1

CHL-1 (Melanoma) = tested on: CHL-1 (Melanoma)
Outline: as §1

[3] = tested on: COLO-684 (Endometrial Carcinoma)
Outline: as §1

[4] = tested on: Calu-6 (Non-Small Cell Lung Carcinoma)
Outline: as §1

[5] = tested on: EB-3 (Burkitt's Lymphoma)
Outline: as §1

ES-2 (Ovarian Carcinoma) = tested on: ES-2 (Ovarian Carcinoma)
Outline: as §1

[6] = tested on: FLO-1 (Esophageal Adenocarcinoma)
Outline: as §1

[7] = tested on: HTC-C3 (Thyroid Gland Carcinoma)
Outline: as §1

KYM-1 (Rhabdomyosarcoma) = tested on: KYM-1 (Rhabdomyosarcoma)
Outline: as §1

[8] = tested on: LOUCY (T-Lymphoblastic Leukemia)
Outline: as §1

[9] = tested on: NCI-H1563 (Lung Adenocarcinoma)
Outline: as §1

[10] = tested on: NCI-H1755 (Lung Adenocarcinoma)
Outline: as §1

[11] = tested on: NCI-H196 (Small Cell Lung Carcinoma)
Outline: as §1

[12] = tested on: NCI-H810 (Non-Small Cell Lung Carcinoma)
Outline: as §1

[13] = tested on: NKM-1 (Acute Myeloid Leukemia)
Outline: as §1

[14] = tested on: OCI-AML5 (Acute Myeloid Leukemia)
Outline: as §1

[15] = tested on: SK-MM-2 (Plasma Cell Myeloma)
Outline: as §1

[16] = tested on: SNU-175 (Colorectal Carcinoma)
Outline: as §1

| SMILES | combination Emax (786-0 (Kidney Carcinoma)) | combination Emax [1] | combination Emax [2] | combination Emax (CHL-1 (Melanoma)) | combination Emax [3] | combination Emax [4] | combination Emax [5] | combination Emax (ES-2 (Ovarian Carcinoma)) | combination Emax [6] | combination Emax [7] | combination Emax (KYM-1 (Rhabdomyosarcoma)) | combination Emax [8] | combination Emax [9] | combination Emax [10] | combination Emax [11] | combination Emax [12] | combination Emax [13] | combination Emax [14] | combination Emax [15] | combination Emax [16] |
| --- | --- | --- | --- | --- | --- | --- | --- | --- | --- | --- | --- | --- | --- | --- | --- | --- | --- | --- | --- | --- |
| COc1cccc2c1C(=O)c1c(O)c3c(c(O)c1C2=O)C[C@@](O)(C(=O)CO)C[C@@H]3O[C@H]1C[C@H](N)[C@H](O)[C@H](C)O1 [Doxorubicin] + Cc1cc2ncnn2cc1Nc1ncc2c(n1)n(C1CCOCC1)c(=O)n2C [AZD7648] (first compound max 1 µM, 7x7, partner max 10 µM) | 0.82 | 0.501 | 0.99 | 0.767 | 0.627 | 0.516 | 0.919 | 0.76 | 0.927 | 0.427 | 0.956 | 0.943 | 0.58 | 0.776 | 0.145 | 0.756 | 0.988 | 0.988 | 0.371 | 0.823 |
| CC1(C)CCC(CN2CCN(c3ccc(C(=O)NS(=O)(=O)c4ccc(NCC5CCOCC5)c([N+](=O)[O-])c4)c(Oc4cnc5[nH]ccc5c4)c3)CC2)=C(c2ccc(Cl)cc2)C1 [Venetoclax] + CCN(CCO)CCCOc1ccc2c(Nc3cc(CC(=O)Nc4cccc(F)c4)[nH]n3)ncnc2c1 [AZD2811] (first compound max 1 µM, 7x7, partner max 1 µM) | 0.159 | 0.399 | 1 | 0.531 | 0.19 | 0.346 | 0.319 | 0.233 | 0.359 | 0.121 | 0.162 | 1 | 0.193 | 0.678 | 0.126 | 0.492 | 1 | 1 | 1 | 0.912 |
| Cn1cnc2c(F)c(Nc3ccc(Br)cc3Cl)c(C(=O)NOCCO)cc21 [Selumetinib] + CC(C)n1c(=O)n(C)c2cnc3cc(F)c(-c4ccc(OCCCN5CCCCC5)nc4)cc3c21 [AZD1390] (first compound max 10 µM, 7x7, partner max 0.3 µM) | 0.159 | 0.0572 | 0.24 | 0.0273 | 0.125 | 0.672 | 0.215 | 0.377 | 0.424 | 0.591 | 0.141 | 0.35 | 0.161 | 0.235 | 0.0904 | 0.304 | 0.504 | 0.9 | 0.174 | 0.27 |
| Cc1c2c(nn1C)CSCc1cc(n(C)n1)CSc1cc(c3ccccc3c1)OCCCc1c(C(=O)O)n(C)c3c-2c(Cl)ccc13 [AZD5991] + CCN(CCO)CCCOc1ccc2c(Nc3cc(CC(=O)Nc4cccc(F)c4)[nH]n3)ncnc2c1 [AZD2811] (first compound max 1 µM, 7x7, partner max 1 µM) | 0.35 | 0.584 | 0.875 | 0.933 | 0.381 | 0.361 | 0.35 | 0.345 | 0.489 | 0.235 | 0.62 | 0.983 | 0.517 | 0.619 | 0.222 | 0.981 | 0.969 | 1 | 0.487 | 0.96 |
| C[C@@H](c1ccc2nccn2c1)n1nnc2ncc(-c3cnn(C)c3)nc21 [Savolitinib] + CC1(C)CCC(CN2CCN(c3ccc(C(=O)NS(=O)(=O)c4ccc(NCC5CCOCC5)c([N+](=O)[O-])c4)c(Oc4cnc5[nH]ccc5c4)c3)CC2)=C(c2ccc(Cl)cc2)C1 [Venetoclax] (first compound max 1 µM, 7x7, partner max 1 µM) | 0.159 | 0.0904 | 1 | 0.118 | 0.174 | 0.194 | 0.253 | 0.137 | 0.2 | 0.127 | 0.185 | 0.976 | 0.18 | 0.101 | 0.128 | 0.194 | 0.545 | 0.883 | 1 | 0.119 |
| NC1(C(=O)N[C@@H](CCO)c2ccc(Cl)cc2)CCN(c2ncnc3[nH]ccc23)CC1 [Capivasertib] + CC(C)n1c(=O)n(C)c2cnc3cc(F)c(-c4ccc(OCCCN5CCCCC5)nc4)cc3c21 [AZD1390] (first compound max 10 µM, 7x7, partner max 0.3 µM) | 0.489 | 0.756 | 0.576 | 0.126 | 0.56 | 0.222 | 0.522 | 0.257 | 0.346 | 0.308 | 0.52 | 0.623 | 0.452 | 0.443 | 0.267 | 0.166 | 0.459 | 0.22 | 0.243 | 0.269 |
| COc1nnc2ccc(N3CCC(c4ccc(OCCN5CCN(C)C(=O)[C@H]5C)cc4)CC3)nn12 [AZD5153] + C[C@@H]1COCCN1C2=NC(=NC(=C2)C3(CC3)[S@](=N)(=O)C)C4=C5C=CNC5=NC=C4 [AZD6738] (first compound max 1 µM, 7x7, partner max 10 µM) | 0.754 | 0.55 | 1 | 0.747 | 0.797 | 0.87 | 0.833 | 0.877 | 0.823 | 0.845 | 0.962 | 0.997 | 0.664 | 0.874 | 0.329 | 0.795 | 0.98 | 0.95 | 0.917 | 0.883 |
| CC1(C)CCC(CN2CCN(c3ccc(C(=O)NS(=O)(=O)c4ccc(NCC5CCOCC5)c([N+](=O)[O-])c4)c(Oc4cnc5[nH]ccc5c4)c3)CC2)=C(c2ccc(Cl)cc2)C1 [Venetoclax] + C[C@@H]1COCCN1C2=NC(=NC(=C2)C3(CC3)[S@](=N)(=O)C)C4=C5C=CNC5=NC=C4 [AZD6738] (first compound max 1 µM, 7x7, partner max 10 µM) | 0.712 | 0.653 | 1 | 0.879 | 0.753 | 0.801 | 0.6 | 0.789 | 0.559 | 0.674 | 0.839 | 1 | 0.307 | 0.828 | 0.376 | 0.577 | 1 | 1 | 1 | 0.658 |
| Cc1c2c(nn1C)CSCc1cc(n(C)n1)CSc1cc(c3ccccc3c1)OCCCc1c(C(=O)O)n(C)c3c-2c(Cl)ccc13 [AZD5991] + C1CN(CCC1(C(=O)N[C@@H](CCO)C2=CC=C(C=C2)Cl)N)C3=NC=NC4=C3C=CN4 [Capivasertib] (first compound max 1 µM, 7x7, partner max 3 µM) | 0.44 | 0.951 | 0.65 | 0.275 | 0.599 | 0.192 | 0.299 | 0.196 | 0.347 | 0.179 | 0.466 | 0.926 | 0.774 | 0.338 | 0.196 | 0.286 | 0.999 | 1 | 0.325 | 0.492 |
| CN(CCO)CC[C@H](CSc1ccccc1)Nc1ccc(S(=O)(=O)NC(=O)c2ccc(N3CCC([C@@H](O)c4ccccc4-c4ccc(Cl)cc4)CC3)cc2)cc1S(=O)(=O)C(F)(F)F [AZD4320] + Cn1cnc2c(F)c(Nc3ccc(Br)cc3Cl)c(C(=O)NOCCO)cc21 [Selumetinib] (first compound max 1 µM, 7x7, partner max 3 µM) | 0.307 | 0.693 | 1 | 0.389 | 0.355 | 0.837 | 0.393 | 0.466 | 0.453 | 0.707 | 0.203 | 1 | 0.198 | 0.295 | 0.275 | 0.615 | 1 | 1 | 1 | 0.865 |
| CN(C)CCCOc1ccc(-c2ccc3ncc4c(c3c2)n(C2CCOCC2)c(=O)n4C)cn1 [AZD0156] + CCN(CCO)CCCOc1ccc2c(Nc3cc(CC(=O)Nc4cccc(F)c4)[nH]n3)ncnc2c1 [AZD2811] (first compound max 1 µM, 7x7, partner max 1 µM) | 0.118 | 0.27 | 0.634 | 0.194 | 0.201 | 0.328 | 0.425 | 0.167 | 0.267 | 0.0862 | 0.0599 | 0.929 | 0.311 | 0.475 | 0.0373 | 0.542 | 0.473 | 0.963 | 0.248 | 0.604 |
| NC1(C(=O)N[C@@H](CCO)c2ccc(Cl)cc2)CCN(c2ncnc3[nH]ccc23)CC1 [Capivasertib] + CC(=O)c1c(C)c2cnc(Nc3ccc(N4CCNCC4)cn3)nc2n(C2CCCC2)c1=O [Palbociclib] (first compound max 10 µM, 7x7, partner max 10 µM) | 0.681 | 0.803 | 0.597 | 0.191 | 0.632 | 0.415 | 0.428 | 0.72 | 0.551 | 0.474 | 0.85 | 0.688 | 0.47 | 0.659 | 0.258 | 0.141 | 0.796 | 0.479 | 0.409 | 0.634 |
